The values that follow come from ChEMBL document CHEMBL1127522, “[L-Ala3]DPDPE: a new enkephalin analog with a unique opioid receptor activity profile. Further evidence of delta-opioid receptor multiplicity” (J Med Chem, 1994).

Bridge positions count the residues as written; N and C are the ends. Square brackets hold non-standard residues; d marks the D form. Peptide text beside a SMILES is read from it. dPen = CC(C)(S)[C@@H](N)C(=O)O; dAbu = CC[C@@H](N)C(=O)O

For one assay, the target named is Mu-type opioid receptor (Rattus norvegicus, UniProt P33535). Kind of assay: Evaluation for the binding affinity by competitive inhibition of [3H]- CTOP binding.
Sequence of Mu-type opioid receptor (P33535 whole entry): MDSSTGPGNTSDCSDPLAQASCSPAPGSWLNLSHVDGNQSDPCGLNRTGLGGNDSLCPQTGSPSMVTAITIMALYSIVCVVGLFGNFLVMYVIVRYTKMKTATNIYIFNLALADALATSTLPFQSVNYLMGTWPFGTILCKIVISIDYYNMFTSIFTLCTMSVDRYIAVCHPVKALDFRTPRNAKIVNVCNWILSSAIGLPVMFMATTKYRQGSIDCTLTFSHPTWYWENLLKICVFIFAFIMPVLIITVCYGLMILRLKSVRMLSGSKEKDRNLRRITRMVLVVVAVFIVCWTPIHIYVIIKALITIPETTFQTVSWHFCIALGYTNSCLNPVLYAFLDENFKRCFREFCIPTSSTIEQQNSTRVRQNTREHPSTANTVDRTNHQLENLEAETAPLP
Assay [1] addresses Delta-type opioid receptor (Rattus norvegicus, UniProt P33533). Kind of assay: Evaluation for the binding affinity by competitive inhibition of [3H]- p-chloro DPDPE binding.
In assay [2] the target is Delta-type opioid receptor (Mus musculus, UniProt P32300). Kind of assay: Inhibitory activity of the electrically induced smooth muscle contraction of mouse vas deferens. The class given is functional, tissue-based.
Sequence of Delta-type opioid receptor (Mus musculus, UniProt P32300) (P32300 whole entry): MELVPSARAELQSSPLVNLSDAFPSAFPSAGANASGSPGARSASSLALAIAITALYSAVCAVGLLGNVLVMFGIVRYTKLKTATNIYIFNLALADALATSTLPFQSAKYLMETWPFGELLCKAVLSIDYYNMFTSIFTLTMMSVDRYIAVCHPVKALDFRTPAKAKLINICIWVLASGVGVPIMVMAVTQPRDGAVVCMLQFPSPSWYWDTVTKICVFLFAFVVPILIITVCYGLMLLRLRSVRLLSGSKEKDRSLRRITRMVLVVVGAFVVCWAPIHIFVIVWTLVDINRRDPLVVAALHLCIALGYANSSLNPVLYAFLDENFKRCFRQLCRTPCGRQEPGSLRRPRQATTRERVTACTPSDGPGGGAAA

For orientation: IC50 means the point on the concentration scale where inhibition reaches its midpoint.

Sequence of Delta-type opioid receptor (Rattus norvegicus, UniProt P33533) (P33533 whole entry): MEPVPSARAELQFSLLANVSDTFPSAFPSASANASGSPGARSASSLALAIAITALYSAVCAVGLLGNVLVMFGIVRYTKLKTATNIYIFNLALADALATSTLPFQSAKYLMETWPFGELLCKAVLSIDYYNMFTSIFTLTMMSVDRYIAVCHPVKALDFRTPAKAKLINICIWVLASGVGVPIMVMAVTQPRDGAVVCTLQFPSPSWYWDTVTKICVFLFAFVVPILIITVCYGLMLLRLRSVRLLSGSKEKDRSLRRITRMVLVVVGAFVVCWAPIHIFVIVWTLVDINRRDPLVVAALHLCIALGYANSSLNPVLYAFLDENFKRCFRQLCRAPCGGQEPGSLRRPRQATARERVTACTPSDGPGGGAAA

The molecule `CC1(C)SSC(C)(C)[C@@H](NC(=O)[C@@H](N)Cc2ccc(O)cc2)C(=O)N[C@@H](CO)C(=O)N[C@@H](Cc2ccccc2)C(=O)N[C@H]1C(=O)O` (H-Y[dPen]SF[dPen]-OH; disulfide 2-5) came in with an IC50 on Mu-type opioid receptor above 22500 nM.

In the case of `CC[C@H]1NC(=O)[C@H](NC(=O)[C@@H](N)Cc2ccc(O)cc2)C(C)(C)SSC(C)(C)[C@H](C(=O)O)NC(=O)[C@H](Cc2ccccc2)NC1=O` (H-Y[dPen][dAbu]F[dPen]-OH; disulfide 2-5), the results for the IC50 (on Mu-type opioid receptor; in assay [1]) were above 50000 nM and 2500 nM, respectively.

In the case of `CC1(C)SSC(C)(C)[C@@H](NC(=O)[C@@H](N)Cc2ccc(O)cc2)C(=O)N[C@H](CO)C(=O)N[C@@H](Cc2ccccc2)C(=O)N[C@H]1C(=O)O` (H-Y[dPen][dS]F[dPen]-OH; disulfide 2-5), the 50% inhibitory concentration (IC50) on Mu-type opioid receptor was above 50000 nM; in assay [2] it was 1300 nM.
